Two molecules from patent US20080214565A1, “Oxazolidinone Derivatives as Antimicrobials” (priority 2003, published 2008) can be followed below.

≈ marks a conversion by molar mass, not a printed value.

The test system of one assay is MRSA 15187. Briefly: MIC by agar incorporation method, MRSA 15187. The following applies: in vitro, 24 hours. The format is cell-based, Methicillin Resistant Staphylococcus aureus. An excerpt:
(§1) The compounds of the invention display antibacterial activity when tested by the agar incorporation method. The following minimum inhibitory concentrations (μg/ml) were obtained for representative compounds of the invention which are given below in the following table.
(§2) 1) S. aureus ATCC 25923—Staphylococus aureus ATCC 25923 2) MRSA 15187—Methicillin Resistant Staphylococcus aureus 3) Ent. faecalis ATCC 29212—Enterococcus faecalis ATCC 29212 4) Ent. faecium 6A—Enterococcus faecium 6A Van®, Cipro® 5) Strep. pne. ATCC 6303—Streptococcus pneumoniae ATCC 6303 6) Strep. pyog. ATCC 19615—Streptococcus pyogenes 7) S. epidermidis—Staphylococcus epidermidis ATCC 12228
(§3) Briefly, the compounds were dissolved in dimethylsulfoxide and doubling dilution of the compounds were incorporated into Meer Hilton agar before solidification. Inoculum was prepared by suspending 4 to 5 colonies into 5 ml of normal saline solution and adjusting the turbility to 0.5 Macfarland turbidity standard tables (1.5×10^8 CFU/ml), after appropriate dilutions, 10^4 CFU/spot was transferred into the surface of dried plate and incubated for 18 hours (24 hours for MRSN studies). The concentration showing no growth of the inoculated culture was recorded as the MIC. Appropriate ATCC standard strains were simultaneously tested and result recorded only when the MIC's against standard antibiotics were within the acceptable range.

Another assay has as its system VRE 6A (Ent. faecium 6A). As to the kind of experiment: MIC by agar incorporation method, VRE 6A. The following applies: in vitro, 18 hours. The format is cell-based, Enterococcus faecium.
Text: as §1, §2, §3

The subject of a further assay is MRSA 33. Briefly: MIC by agar incorporation method, MRSA 33. The following applies: in vitro, 24 hours. Format: cell-based, Methicillin Resistant Staphylococcus aureus. The protocol:
as §1, §3

Another assay concerns Strep. pyog. ATCC 19615. As to the kind of experiment: MIC by agar incorporation method, S. pyogenes 19615. Format: cell-based, Streptococcus pyogenes. The following applies: in vitro, 18 hours.
Text: as §1, §2, §3

The test system of the next assay is MRSA 562. Briefly: MIC by agar incorporation method, MRSA 562. The format is cell-based, Methicillin Resistant Staphylococcus aureus. The note with it: in vitro, 24 hours. The protocol:
as §1, §3

A further assay deals with S. aureus ATCC 25923. As to the kind of experiment: MIC by agar incorporation method, S. aureus ATCC 25923. The format is cell-based, Staphylococus aureus. The note with it: in vitro, 18 hours.
Text: as §1, §2, §3

A further assay has as its system S. pneum AB34. Briefly: MIC by agar incorporation method, S. pneum AB34. The note with it: in vitro, 18 hours. Format: cell-based, Streptococcus pneumoniae. The protocol: as §1, §3
For another assay, the system named is Strep. pne. ATCC 6303. Briefly: MIC by agar incorporation method, S. pneum 6303. The format is cell-based, Streptococcus pneumoniae. The note with it: in vitro, 18 hours.
Text: as §1, §2, §3

The next assay concerns Ent. faecalis ATCC 29212. Briefly: MIC by agar incorporation method, E. faecalis 29212. Format: cell-based, Enterococcus faecalis. The following applies: in vitro, 18 hours.
Text: as §1, §2, §3

As to `NC(=S)NC[C@H]1CN(c2ccc(N3CCN(Cc4ccc([N+](=O)[O-])o4)CC3)c(F)c2)C(=O)O1` [Compound No. 10, (S)—N-[1-[[3-[3-Fluoro-4-[N-1-[4-{2-furyl-(5-nitro)methyl}]piperazinyl]phenyl]-2-oxo-5-oxazolidinyl]methyl]]-thiourea], the “minimum inhibitory concentration, MRSA 15187” value in the assay on MRSA 15187 was 1 µg/mL (≈ 2.09 µM). Further, in the assay on VRE 6A (Ent. faecium 6A), the “minimum inhibitory concentration, VRE 6A” value was determined as 1 µg/mL (≈ 2.09 µM). Further, the “minimum inhibitory concentration, MRSA 33” value in the assay with MRSA 33 was found to be 1 µg/mL (≈ 2.09 µM). In the assay with Strep. pyog. ATCC 19615, the “minimum inhibitory concentration, S. pyogenes 19615” value worked out at 0.25 µg/mL (≈ 0.522 µM). For the same molecule, the “minimum inhibitory concentration, MRSA 562” value with MRSA 562 amounted to 1 µg/mL (≈ 2.09 µM). In addition, the “minimum inhibitory concentration, S. aureus 259231” value in the assay on S. aureus ATCC 25923 stood at 1 µg/mL (≈ 2.09 µM). Further, the “minimum inhibitory concentration, S. pneum AB34” value with S. pneum AB34 came out at 0.24 µg/mL (≈ 0.502 µM). Moreover, the “minimum inhibitory concentration, S. pneum 6303” value in the assay with Strep. pne. ATCC 6303 is below 0.06 µg/mL. In the assay on Ent. faecalis ATCC 29212, the “minimum inhibitory concentration, E. faecalis 29212” value worked out at 0.5 µg/mL (≈ 1.04 µM).

As for `NC(=S)NC[C@H]1CN(c2ccc(N3CCN(Cc4ccc([N+](=O)[O-])s4)CC3)c(F)c2)C(=O)O1` [Compound No. 12, (S)—N-[1-[[3-[3-Fluoro-4-[N-1-[4-{2-thienyl-(5-nitro)methyl}]piperazinyl]phenyl]-2-oxo-5-oxazolidinyl]methyl]]-thiourea], in the assay with MRSA 15187, the “minimum inhibitory concentration, MRSA 15187” value was found to be 0.5 µg/mL (≈ 1.01 µM). In addition, the “minimum inhibitory concentration, VRE 6A” value in the assay on VRE 6A (Ent. faecium 6A) was determined as 0.5 µg/mL (≈ 1.01 µM). Further, the “minimum inhibitory concentration, MRSA 33” value in the assay on MRSA 33 came out at 1 µg/mL (≈ 2.02 µM). In addition, the “minimum inhibitory concentration, S. pyogenes 19615” value with Strep. pyog. ATCC 19615 is below 0.25 µg/mL. Also, the “minimum inhibitory concentration, MRSA 562” value with MRSA 562 stood at 0.5 µg/mL (≈ 1.01 µM). Further, in the assay with S. aureus ATCC 25923, the “minimum inhibitory concentration, S. aureus 259231” value came to 1 µg/mL (≈ 2.02 µM). Moreover, in the assay on S. pneum AB34, the “minimum inhibitory concentration, S. pneum AB34” value came to 0.5 µg/mL (≈ 1.01 µM). In addition, in the assay on Strep. pne. ATCC 6303, the “minimum inhibitory concentration, S. pneum 6303” value was 0.5 µg/mL (≈ 1.01 µM). The “minimum inhibitory concentration, E. faecalis 29212” value in the assay on Ent. faecalis ATCC 29212 is 1 µg/mL (≈ 2.02 µM).
